Results on twelve molecules are retold here after ChEMBL document CHEMBL1154158, “Synthesis and antitumoral activity of novel thiazolobenzotriazole, thiazoloindolo[3,2-c]quinoline and quinolinoquinoline derivatives” (Eur J Med Chem, 2009).

Test [1] deals with DNA topoisomerase 2-alpha (Homo sapiens) (UniProt P11388). Briefly: Inhibition of human topoisomerase 2-mediated DNA cleavage.
For the next test, the system named is MDA-MB-231. Briefly: Growth inhibition of human MDA-MB-231 cells at 10 uM after 72 hrs by MTT assay. It counts as functional. The following applies: MDA-MB-231, 72 h. In general terms: Formazan colour is commonly taken as a measure of viable cells.
In a further test the test system is MCF7. Briefly: Growth inhibition of human MCF7 cells at 10 uM after 72 hrs by MTT assay. The note with it: MCF7, 72 h. It counts as functional.
For a further test, the system named is Calf thymus DNA. Briefly: Binding affinity to calf thymus DNA assessed as change in melting temperature at [compound]/[polynucleotide] ratio of 1. Type of test: nucleic-acid assay. The following applies: Bos taurus.
Test [2] deals with HL-60. Briefly: Cytotoxicity against human HL60 cells after 72 hrs. The following applies: HL-60, 72 h. It counts as functional, cell-based.
In test [3] the test system is HL-60. Briefly: Cytotoxicity against human mitoxantrone-resistant HL60 cells after 72 hrs. It counts as functional, cell-based. The following applies: HL-60, 72 h.
In the next test the test system is Nucleic Acid. Briefly: Binding affinity to poly(dAT)2 assessed as change in melting temperature at [compound]/[polynucleotide] ratio of 1 at pH 7.1. It counts as nucleic-acid assay.

The structures appear in SMILES notation. Activity calls are given as the source filed them. The rule behind the calls is not given here.

Sequence of DNA topoisomerase 2-alpha (Homo sapiens) (P11388 whole entry): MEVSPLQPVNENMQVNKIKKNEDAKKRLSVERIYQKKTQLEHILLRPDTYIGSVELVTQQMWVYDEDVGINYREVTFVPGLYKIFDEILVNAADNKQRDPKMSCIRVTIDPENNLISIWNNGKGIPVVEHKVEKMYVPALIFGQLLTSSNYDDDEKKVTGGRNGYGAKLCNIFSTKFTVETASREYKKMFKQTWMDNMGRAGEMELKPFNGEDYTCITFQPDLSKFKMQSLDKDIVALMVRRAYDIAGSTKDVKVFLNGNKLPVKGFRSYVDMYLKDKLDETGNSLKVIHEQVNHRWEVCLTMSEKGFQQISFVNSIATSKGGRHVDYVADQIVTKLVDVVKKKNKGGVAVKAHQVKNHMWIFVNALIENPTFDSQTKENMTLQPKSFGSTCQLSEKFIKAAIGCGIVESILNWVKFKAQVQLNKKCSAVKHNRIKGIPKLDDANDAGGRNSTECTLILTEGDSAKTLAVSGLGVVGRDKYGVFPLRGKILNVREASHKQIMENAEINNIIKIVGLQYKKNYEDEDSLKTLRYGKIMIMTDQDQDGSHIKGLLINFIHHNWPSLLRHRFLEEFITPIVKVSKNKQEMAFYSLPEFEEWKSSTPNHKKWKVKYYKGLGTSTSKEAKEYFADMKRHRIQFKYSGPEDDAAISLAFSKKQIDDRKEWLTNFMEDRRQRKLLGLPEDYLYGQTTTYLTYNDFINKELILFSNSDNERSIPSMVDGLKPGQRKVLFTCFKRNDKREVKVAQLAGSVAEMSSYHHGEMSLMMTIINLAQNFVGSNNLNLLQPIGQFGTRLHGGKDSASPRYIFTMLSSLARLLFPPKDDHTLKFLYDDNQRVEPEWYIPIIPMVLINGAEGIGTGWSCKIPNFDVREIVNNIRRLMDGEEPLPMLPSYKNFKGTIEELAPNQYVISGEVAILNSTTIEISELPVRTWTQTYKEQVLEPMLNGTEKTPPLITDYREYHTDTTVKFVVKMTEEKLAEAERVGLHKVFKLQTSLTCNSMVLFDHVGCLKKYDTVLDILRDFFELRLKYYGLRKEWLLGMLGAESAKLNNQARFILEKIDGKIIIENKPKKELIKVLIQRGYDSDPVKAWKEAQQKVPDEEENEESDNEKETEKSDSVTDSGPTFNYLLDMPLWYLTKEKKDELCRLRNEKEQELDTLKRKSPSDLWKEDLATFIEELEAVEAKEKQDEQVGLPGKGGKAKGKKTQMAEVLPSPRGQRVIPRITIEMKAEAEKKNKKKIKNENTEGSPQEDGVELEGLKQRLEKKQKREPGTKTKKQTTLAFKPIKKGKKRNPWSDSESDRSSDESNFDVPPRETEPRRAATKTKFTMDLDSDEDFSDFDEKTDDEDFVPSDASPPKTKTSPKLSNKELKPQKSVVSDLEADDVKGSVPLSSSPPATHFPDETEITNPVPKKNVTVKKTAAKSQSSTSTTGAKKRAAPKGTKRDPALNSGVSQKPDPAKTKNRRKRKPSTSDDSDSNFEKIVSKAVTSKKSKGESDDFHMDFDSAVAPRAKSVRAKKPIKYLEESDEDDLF

Usually inhibition stands for the relative decrease from the control value, in per cent. For `CC[C@@]1(O)C(=O)OCc2c1cc1n(c2=O)Cc2cc3ccccc3nc2-1`, in test [1], the inhibition entry is “inactive”.

Take `Cc1cc(-n2nnc3c4sc(C5=NCCN5)nc4ccc32)c2ccccc2n1`: the figures for the inhibition at 10 µM in the test on MDA-MB-231 and in the test on MCF7 were 97.4% and 98.9%, respectively.

Consider `c1cc(-n2nnc3c4sc(C5=NCCN5)nc4ccc32)ccn1`, for which the inhibition at 10 µM with MDA-MB-231 came to 56.4%; with MCF7, 51.1%.

As for `N#Cc1nc2ccc3c(nnn3-c3ccncc3)c2s1`, the results for the inhibition at 10 µM in the test with MDA-MB-231 and in the test with MCF7 were 87.4% and 95.5%, respectively.

One may read the ΔTm as the change in melting temperature against a reference sample. For orientation: IC50 means the concentration at which inhibition is half-maximal. A lower IC50 goes with inhibition by little substance. For the molecule `CC(=O)Nc1ccc2c(c1)-c1cccc3nccc(c13)N2`, the ΔTm with Calf thymus DNA is 14.5 °C; in the test on Nucleic Acid, 24.5 °C. Also, the values for the 50% inhibitory concentration (IC50) in the test with HL-60 [2] and in the test on HL-60 [3] were 4.6 µM and 5.5 µM, respectively.

Take `N#Cc1nc2ccc3c(nnn3-c3ccc4ccccc4n3)c2s1`: the values for the inhibition at 10 µM in the test with MDA-MB-231 and in the test on MCF7 were 19.8% and 30.4%, respectively.

On to `N#Cc1nc2ccc3c(nnn3-c3ccnc4ccccc34)c2s1`, for which the inhibition at 10 µM was determined as 32.4% in the test on MDA-MB-231 and 34.9% with MCF7.

On to `Cc1cc(-n2nnc3c4sc(C#N)nc4ccc32)c2ccccc2n1`, for which the inhibition at 10 µM in the test with MDA-MB-231 was found to be 91.9%; in the test with MCF7, 87.2%.

As for `c1ccc2c(c1)ncc1c2[nH]c2ccc3ncsc3c21`, the figures for the ΔTm in the test with Calf thymus DNA and with Nucleic Acid were 7.2 °C and 12.7 °C, respectively. Further, the IC50 was determined as 17.2 µM in the test on HL-60 [2] and 22.6 µM in the test on HL-60 [3].

As for `Nc1ccc2[nH]c3c4ccccc4ncc3c2c1`, the inhibition at 10 µM came out at 85.7% with MDA-MB-231 and 73.5% in the test with MCF7.

For `c1ccc2c(-n3nnc4c5sc(C6=NCCN6)nc5ccc43)ccnc2c1`, the inhibition at 10 µM in the test with MDA-MB-231 was determined as 97.3%; in the test with MCF7 it was 95.6%.

With `c1ccc2nc(-n3nnc4c5sc(C6=NCCN6)nc5ccc43)ccc2c1`, the inhibition at 10 µM in the test with MDA-MB-231 was 28.5%; in the test with MCF7, 41.3%.
